The source of these data is patent US9572813B2, “Antiviral agent” (SHIONOGI & CO., LTD., priority 2001, dated 2017).

Tested on in one data set: not given
Experiment: not given
Conditions: not given
In general, melting point refers to the temperature, or range, at which the solid turns liquid. `COCCN1CC(C(=O)c2occc2Cc2ccc(F)cc2)=C(O)C1=O`: the melting point is 170 °C.

Compound `CCC(CC)N1CC(c2cc(CCc3ccccc3)ncn2)=C(O)C1=O` displayed a melting point of 182 to 183 °C.

As for `CN1CC(c2ncc(Cc3ccc(F)cc3)s2)=C(O)C1=O`, the melting point fell in the range of 222 to 224 °C.

The compound `CN1CC(c2ccc([S+]([O-])c3ccc(F)cc3)cn2)=C(O)C1=O` (centres unmarked) yielded a melting point of 228 to 230 °C.

Take `CN1CC(C(=O)c2oc(C(=O)N3CCOCC3)cc2Cc2ccc(F)cc2)=C(O)C1=O`: the melting point was 209 to 211 °C (dec.).

Consider `O=c1c(O)c(-c2ncccn2)oc2cccc(OCc3ccc(F)cc3)c12`, for which the melting point lay within 252 to 254 °C.

As for `CN1CC(c2ncnc(OCc3ccc(F)cc3)n2)=C(O)C1=O`, the melting point is 169 to 171 °C.

Turning to `CCN1CC(C(=O)c2occc2Cc2ccc(F)cc2)=C(O)C1=O`, the melting point is 167 °C.

Consider `COCn1ccc(C(=O)c2ccc(Cc3ccc(F)cc3)o2)c(O)c1=O`, for which the melting point lay within 128 to 130 °C.

Compound `O=C1NCCC(C(=O)c2ccc(Cc3ccc(F)cc3)o2)=C1O` returned a melting point of 166 to 168 °C.

The compound `CCOC(=O)c1oc2ccc(OCc3ccc(F)cc3)cc2c(=O)c1O` gave a melting point of 190 to 192 °C.

Regarding `CC(C)Oc1cccc(Cc2ccc(C(=O)C3=C(O)C(=O)N(C(C)C)C3)o2)c1`, the melting point was in the range of 98 to 99 °C.

As to `CN(C)C(=O)c1cc(OCc2ccc(F)cc2)c2c(=O)c(O)c(-c3ncnn3C)oc2c1`, the melting point lay in the range of 227 to 229 °C.

With `CC(C)N1CC(c2nccc(CCc3ccccc3)n2)=C(O)C1=O`, the melting point was in the range of 126 to 127 °C.

`O=C1C(O)=C(c2cc(CCc3ccccc3)ncn2)CN1Cc1ccccc1` yielded a melting point of 222 to 223 °C.

Turning to `Cc1ccc(-c2cc(Cc3ccc(F)cc3)c(C(=O)C3=C(O)C(=O)N(C)C3)o2)cc1`, the melting point was 242 to 245 °C.

The compound `CN1CC(c2cnc(Cc3ccc(F)cc3)cn2)=C(O)C1=O` displayed a melting point of 223 to 225 °C.

`CCC(CC)N1CC(C(=O)c2ccc(Cc3ccc(F)cc3)o2)=C(O)C1=O` displayed a melting point of 140 to 141 °C.

In turn, `COCCN1CC(C(=O)c2ccc(Cc3ccc(F)cc3)o2)=C(O)C1=O` showed a melting point of 105 to 106 °C.

Compound `CC(C)N1CC(c2cnc(Oc3ccccc3)cn2)=C(O)C1=O` had a melting point of 216 to 217 °C.

In turn, `Cn1ncnc1-c1oc2cc(C(=O)O)cc(OCc3ccc(F)cc3)c2c(=O)c1O` returned a melting point of 280 to 282 °C.

`CC(C)(C)c1cc(Cc2ccc(F)cc2)c(C(=O)C2=C(O)C(=O)N(C3CC3)C2)o1` displayed a melting point of 148 to 150 °C.

`CC(C)N1CC(c2cc(C(Cc3ccc(F)cc3)Cc3ccc(F)cc3)ncn2)=C(O)C1=O` yielded a melting point of 181 to 183 °C.

`CN1CC(C(=O)c2cc(Cc3ccc(F)cc3)co2)=C(O)C1=O` gave a melting point of 143 to 145 °C.

`CC(C)N1CC(c2cc(CCc3ccc(F)cc3)ncn2)=C(O)C1=O`: the melting point lay in the range of 225 to 228 °C.

The compound `CN1CC(c2cc(CCc3ccc(F)cc3)ccn2)=C(O)C1=O` displayed a melting point of 167 to 168 °C.

For `Cc1nc(C(=O)C2=C(O)C(=O)N(C)C2)c(Cc2ccc(F)cc2)o1`, the melting point was 170 °C.

Consider `O=C(C1=C(O)C(=O)N(CCO)C1)c1occc1Cc1ccc(F)cc1`, for which the melting point was in the range of 195 to 196 °C.

Regarding `CN1CC(c2cc(CCc3ccc(F)cc3)ncn2)=C(O)C1=O`, the melting point was 225 to 228 °C.

Compound `CC(C)N1CC(c2nccc(OCc3ccc(F)cc3)n2)=C(O)C1=O` displayed a melting point of 148 to 149 °C.

As for `CC(C)N1CC(C(=O)c2ccc(Cc3ccccc3)o2)=C(O)C1=O`, the melting point lay within 162 to 163 °C.

As to `CC(C)N1CC(c2nccc(OCc3ccccc3)n2)=C(O)C1=O`, the melting point was 155 to 157 °C.

`O=C(C1=C(O)C(=O)N(CC(O)CO)C1)c1ccc(Cc2ccc(F)cc2)o1` (centres unmarked) registered a melting point of 119 to 120 °C.

`CC(C)(C)N1CC(c2cc(CCc3ccccc3)ncn2)=C(O)C1=O` registered a melting point of 199 to 200 °C.

In turn, `COc1ccc(CN2CC(c3ccc(Cc4ccc(F)cc4)cn3)=C(O)C2=O)cc1` returned a melting point of 164 to 166 °C.

Regarding `CC(C)N1CC(c2ccc(Oc3ccccc3)cn2)=C(O)C1=O`, the melting point was in the range of 181 to 183 °C.

Consider `CC(C)N1C(=O)C(O)=C(C(=O)c2ccc(Cc3ccc(F)cc3)o2)C1C` (centres unmarked), for which the melting point is 120 to 122 °C.

In the case of `CN1CC(c2ncc(Cc3ccc(F)cc3)cn2)=C(O)C1=O`, the melting point fell in the range of 163 to 165 °C.

For the compound `Cc1cc(Cc2ccc(F)cc2)c(C(=O)C2=C(O)C(=O)N(C)C2)o1`, the melting point is 154 to 156 °C.

With `CC(C)N1CC(C(=O)c2ccc(Cc3cccc4ccccc34)o2)=C(O)C1=O`, the melting point fell in the range of 165 to 166.5 °C.

As to `O=C1NCC(C(=O)c2ccc(Cc3ccc(F)cc3)o2)=C1O`, the melting point was in the range of 178 to 179 °C.

`CCCC(O)CN1CC(C(=O)c2ccc(Cc3ccc(F)cc3)o2)=C(O)C1=O` (centres unmarked) gave a melting point of 171 °C.

`CN1CC(c2cc(CCc3ccccc3)cnn2)=C(O)C1=O` yielded a melting point of 203 to 205 °C.

As to `CN(C)C(=O)c1ccc(OCc2ccc(F)cc2)c2c(=O)c(O)c(-c3ncnn3C)oc12`, the melting point lay within 246 to 247 °C.

Consider `Cc1oc(C(=O)C2=C(O)C(=O)N(C)C2)c(Cc2ccc(F)cc2)c1C`, for which the melting point lay in the range of 202 to 204 °C.

The compound `CN1CC(C(=O)c2cc(C(=O)NCc3ccccc3)c(Cc3ccc(F)cc3)o2)=C(O)C1=O` yielded a melting point of 181 to 184 °C.

Take `COc1cc(F)ccc1Cc1ccc(C(=O)C2=C(O)C(=O)N(C)C2)o1`: the melting point is 134 to 135 °C.

As to `COCNC(=O)c1cc(OCc2ccc(F)cc2)c2c(=O)c(O)c(-c3ncnn3C)oc2c1`, the melting point is 220 to 221 °C.

Compound `CC(C)N1CC(c2ncnc(OCc3ccc(F)cc3)n2)=C(O)C1=O` had a melting point of 105 to 106 °C.

The compound `Cc1nc(=O)c(O)c(-c2nnc(Cc3ccc(F)cc3)o2)[nH]1` showed a melting point of 283 to 286 °C.

Take `CN1CC(c2cc(C(Cc3ccc(F)cc3)Cc3ccc(F)cc3)ncn2)=C(O)C1=O`: the melting point lay within 162 to 164 °C.

`CN1CC(C(=O)c2cc(C(=O)O)c(Cc3ccc(F)cc3)o2)=C(O)C1=O`: the melting point is 255 to 258 °C (dec.).

The compound `CC(C)N1CC(C(=O)c2cn(Cc3ccc(F)cc3)cn2)=C(O)C1=O` returned a melting point of 224 to 226 °C.

On to `Cn1c(-c2nnc(Cc3ccc(F)cc3)o2)c(O)c(=O)c2ccccc21`, for which the melting point stood at 222 °C.

`CC(C)N1CC(c2cc(CCc3ccc(F)cc3)ccn2)=C(O)C1=O` came in with a melting point of 167 to 168 °C.

In turn, `CN1CC(C(=O)c2cnn(Cc3ccc(F)cc3)c2)=C(O)C1=O` had a melting point of 150 to 151 °C.

The target in the next data set is integrase (Human immunodeficiency virus type 1 group M subtype B, UniProt P04585). Nature of the data set: Integrase inhibition assay (microtiter plate strand transfer, substrate DNA/target DNA, anti-digoxigenin ELISA). The format is biochemical. The settings on record: concentration of the compound at percent inhibition 50%; 30° C. for 1 hour; OD at 405 nm; read-out: IC50 (converted). On the procedure:
The inhibitory activities against integrase of the compounds in the present invention have been determined by the assay described below.
(1) Preparation of DNA Solutions.
Substrate DNA and target DNA, which sequences were indicated below, were synthesized by Amersham Pharmacia Biotech and dissolved in KTE buffer (composition: 100 mM KCl, 1 mM EDTA, 10 mM Tris-HCl (pH 7.6)) at concentration of 2 pmol/μl and 0.5 pmol/μl, respectively. The DNA solutions were annealed with each complement by slowly cooling after heating.
(2) Calculations of the Percent Inhibitions (the IC50 Values of Test Compounds)
Streptavidin, obtained from Vector Laboratories, was dissolved in 0.1 M carbonate buffer (composition: 90 mM Na2CO3, 10 mM NaHCO3) at concentration of 40 µg/ml. After coating each well of microtiter plates (obtained from NUNC) with 50 μL of the above solution at 4° C. over night, each well was washed twice with PBS (composition: 13.7 mM NaCl, 0.27 mM KCl, 0.43 mM Na2HPO4, 0.14 mM KH2PO4) and blocked with 300 μl of 1% skim milk in PBS for 30 min. Additionally, each well was washed twice with PBS and added 50 μl of substrate DNA solution (0.04 pmol/μl) diluted to one fiftieth with NTE buffer (composition: 1M NaCl, 10 mM Tris-HCl (pH8.0), 1 mM EDTA). The microtiter plates were kept at room temperature for 30 min. Then, each well was washed twice with PBS and once with H2O.
Subsequently, in the each well prepared above were added 45 μl of the reaction buffer prepared from 12 μl of the buffer (composition: 150 mM MOPS (pH 7.2), 75 mM MnCl2, 50 mM 2-mercaptoethanol, 25% glycerol, 500 μg/ml bovine serum albumin-fraction V), 1 μl of target DNA (5 pmol/μl), and 32 μl of the distilled water. Additionally, 6 μl of either a test compound in DMSO or DMSO for positive control (PC) was mixed with the above reaction buffer, then 9 μl of an integrase solution (30 pmol) was added and mixed well. In the well of negative control (NC) was added 9 μl of the integrase dilution buffer (composition: Hepes (pH7.6), 400 mM potassium glutamate, 1 mM EDTA, 0.1% NP-40, 20% glycerol, 1 mM DTT, 4M urea).
The microtiter plates were incubated at 30° C. for 1 hour. The reaction solution was removed and each well was washed twice with PBS. Subsequently, each well of the microtiter plates was filled with 100 μl of anti-digoxigenin antibody labeled with alkaline phosphatase (Sheep Fab fragment: obtained from Boehringer) and incubated at 30° C. for 1 hour. Then, each well was washed twice with 0.05% Tween20 in PBS and once with PBS. Next, 150 μl of the Alkaline phosphatase reaction buffer (composition: 10 mM p-Nitrophenylphosphate (obtained from Vector Laboratories), 5 mM MgCl2, 100 mM NaCl, 100 mM Tris-HCl (pH 9.5)) was added in each well. The microtiter plates were incubated at 30° C. for 2 hours. The optical density (OD) at 405 nm of each well was measured and the percent inhibition was determined by the following expression. The percent inhibition (%)=100[1−{(C abs.−NC abs.)/(PC abs.−NC abs.)}] • C abs.; the OD of the well of the • NC abs.: the OD of the negative control (NC) • PC abs.: the OD of the positive control (PC)
When the percent inhibition (%) is X % at the concentration of x μg/ml and the percent inhibition (%) is Y % at the concentration of y μg/ml, one of which is more than 50% and the other is less than 50%, IC50 can be determined by the following expression. IC50(μg/ml)=x−{(X−50),(x−y)/(X−Y)}
Compound No. in the Table 1 is the same as compound No. of the above example.
For orientation: An ELISA detects its analyte on a solid surface through an enzyme-linked reagent.
As usually defined, the IC50 is the concentration needed to halve the response being measured. `CN1CC(c2cc(OCc3ccc(F)cc3)ncn2)=C(O)C1=O` [Compound B-12-b, 4-[6-(4-Fluorobenzyloxyl)pyrimidine-4-yl]-3-hydroxy-1-methyl-1,5-dihydropyrrole-2-one]: the IC50 is 0.666 µM.

As for `CCCCN1CC(C(=O)c2ccc(Cc3ccc(F)cc3)o2)=C(O)C1=O` [Compound A-17-c, 1-Butyl-4-[5-(4-fluorobenzyl)furan-2-carbonyl]-3-hydroxy-1,5-dihydropyrrole-2-one], the IC50 was 2.63 µM.

Turning to `Cc1nc(=O)c(O)c(-c2ccc(Cc3ccc(F)cc3)cn2)[nH]1` [Compound G-7, 6-[5-(4-fluorobenzyl)pyridine-2-yl]-5-hydroxy-2-methyl-1H-pyrimidine-4-one], the IC50 was 1.54 µM.
